Experimental data as given in publication PMC8298375 (Naunyn-Schmiedeberg's Archives of Pharmacology, 2021).

What was measured:
[1] = system: scopolamine-induced amnesia rats; test: Passive avoidance test, scopolamine-induced amnesia (acute model); type: in vivo, Wistar rats; conditions: Mean ± SEM; for Latency time: time to enter darker compartment
Method: In the acute model, the rats were trained for Morris water maze (MWM) and passive avoidance test (PAT) tasks in the first 4 days. On the 5th day, 30 min after scopolamine administration, respective treatments were given to all the groups. Fifteen minutes thereafter, the test trials were conducted in MWM and PAT.
The passive avoidance apparatus consists of a larger illuminated compartment and a smaller dark compartment. Each consists of a square box, with a floor grid of 50 × 50 cm and wooden walls of 35-cm height in larger compartment. Larger box was illuminated by 15 W Philips CFL lamp. A smaller dark compartment of 15 × 15 cm with an electrified floor is connected to a constant current stimulator. An opening 6 × 6 cm in between the two compartments was closed using a transparent plexiglass sliding door. The test procedure was carried out in three phases, exploration, learning, and retention (Praveenkumar [2019]).
First day, the animal was placed in the center of the illuminated larger compartment facing away from the entrance to the small darker compartment and allowed to explore the apparatus, i.e., both compartments for 3 min. Total time spent in the larger and smaller compartments and the number of crossings (from larger to smaller compartments and vice versa; a measure of exploratory behavior) were noted. On the second day, animal was placed in the illuminated larger compartment facing away from the entrance to the darker compartment. Once the animal entered the darker compartment, the entrance to the larger compartment was closed, and three strong electric foot shocks (50 Hz, 0.5 mA, 2 s) with 10-s intervals were applied. On the third day, rats were placed in the illuminated larger compartment and allowed to explore both the compartments for 3 min. The parameters assessed are latency time to enter into darker compartment, time spent in the darker and brighter compartments, and the number of crossings between the compartments.

[2] = system: ICV colchicine-induced dementia rats; test: Morris water maze test, ICV colchicine-induced dementia (chronic model); type: in vivo, Wistar rats; conditions: Mean ± SEM; for Escape latency, 14th day / Escape latency, 21st day: colchicine 15 µg ICV; for Escape latency, Probe day: colchicine model
Method: In the chronic model, the rats were trained for MWM and PAT tasks for the first 4 days followed by intracerebroventricular (i.c.v.) administration of colchicine on day 6. After establishing dementia on day 10 of the colchicine administration, the drug treatment was initiated from day 11 to 24. The effects of different drug treatments on dementia were assessed on days 14 and 21. On these particular days, the swim test was performed 15 min after the administration of different treatments and escape latencies; residence time and peripheral swim time were recorded (Nampoothiri [2017]). The retention trials for PAT on day 17 and 23 were performed on days 17 and 23, 15 min after the administration of the drug.
On the 6th day, surgery was performed as described (Bokare et al. [2018]). Rat was anesthetized with sodium pentobarbital (45 mg/kg, i.p.) and positioned in stereotaxic apparatus. The head was positioned in a frame, and a midline sagittal incision was made in the scalp. Two holes were drilled through the skull at coordinates (0.8 mm posterior to bregma, 1.8 mm lateral to the sagittal suture, and 3.6 mm beneath the cortical surface) to place the injection cannula. Rats were intracerebroventricularly infused with either artificial cerebrospinal fluid (ACSF; in mM: 147 NaCl, 2.9 KCl, 1.6 MgCl2, 1.7 CaCl2, and 2.2 dextrose) or 15 µg of colchicine in 5 µL ACSF using a Hamilton microsyringe positioned in the injection cannula. To promote back diffusion, the microsyringe was left in place for 2 min following injection. The scalp was then closed with a suture. After surgery, all animals received gentamicin (5 mg/kg, i.p.) to prevent sepsis. Special care was taken during the postoperative period to provide food and water inside the cage of the rat. In sham-operated rats, surgery was identical except for injection of the solution.
A modified Morris water maze test was used (Nampoothiri [2017]). The pool was positioned in the middle of a dimly lit testing room with distant visual clues that could be used by rats for spatial orientation. The maze consisted of a circular water pool (140 × 45 cm) divided into four equally sized quadrants (NE, SE, SW, and NW) by two imaginary diagonal lines running across the center of the pool. The pool was filled with water maintained at a temperature of 23 ± 2 °C. In the NE quadrant (target quadrant) equidistant from the center and edge of the pool, a platform of 25-cm height and 10-cm diameter was invisibly placed submerged 1 cm below the water surface. Rats were gently placed in each quadrant facing the wall and trained to locate the hidden black platform, and the trial was terminated when the rat reached the platform or after 60 s. Accordingly, rats were subjected to one session of four trials per day for four consecutive days. All rats were left on the platform for 30 s and then removed and towel dried. Inter-trial interval was kept a constant 180 s throughout the study. In the probe trial, platform was removed, and rats were allowed to swim for a 60-s trial period. Data was collected in the form of escape latencies to find the platform; percent of time spent over the target quadrant.

Row | SMILES | Acquisition time ([1]; listed as SCP + INRSM) | No. of crossings ([1]; listed as SCP + INRSM) | Time spent in bright comp. ([1]; listed as SCP + INRSM) | Time spent in darker comp. ([1]; listed as SCP + INRSM) | Latency time ([1]; listed as SCP + INRSM) | Escape latency, 14th day ([2]; listed as COL + INRSM) | Escape latency, 21st day ([2]; listed as COL + INRSM) | Escape latency, Probe day ([2]; listed as COL + INRSM) | Acquisition time ([1]; listed as SCP + ORSM) | No. of crossings ([1]; listed as SCP + ORSM) | Time spent in bright comp. ([1]; listed as SCP + ORSM) | Time spent in darker comp. ([1]; listed as SCP + ORSM) | Latency time ([1]; listed as SCP + ORSM) | Escape latency, 14th day ([2]; listed as COL + ORSM) | Escape latency, 21st day ([2]; listed as COL + ORSM) | Escape latency, Probe day ([2]; listed as COL + ORSM)
1 | CCN(C)C(=O)Oc1cccc([C@H](C)N(C)C)c1 [INRSM, rivastigmine] | 11.59 ± 2.37 s | 2.17 ± 0.54 | 109.67 ± 11.65 s | 70.33 ± 11.65 s | 60.11 ± 16.82 a s | 5.28 ± 0.7425 s | 4.67 ± 0.3849 c s | 3.28 ± 0.5800 s |  |  |  |  |  |  |  | 
2 | CCN(C)C(=O)Oc1cccc([C@H](C)N(C)C)c1 [ORSM, rivastigmine] |  |  |  |  |  |  |  |  | 14.66 ± 2.61 s | 2.50 ± 0.85 | 103.50 ± 16.38 s | 76.50 ± 16.38 s | 41.63 ± 15.66 a s | 5.89 ± 0.7027 s | 5.28 ± 0.3809 c s | 2.83 ± 0.3181 s
